The source of these data is patent US12648939B2, “Compounds and methods for treating spasticity” (Lexicon Pharmaceuticals, Inc., priority 2022, dated 2026).

The subject of experiment [1] is myelin oligodendrocyte glycoprotein (MOG)-induced murine model of experimental autoimmune encephalomyelitis (EAE). The experiment can be described thus: Electrophysiology (EMG, transcranial motor-evoked potentials) in EAE model. The class given is in vivo, C57BL/6J mice. As to conditions: for latency: vehicle 6.94±0.59 ms; for peak-to-peak (P2P) amplitude: vehicle 7681.17±1505.12 μV; for rate of fibrillation (EMG): Day 21, vehicle printed 1.11±4.69 Hz. On the procedure: The effect of Compound 1 on spasticity was evaluated in a myelin oligodendrocyte glycoprotein (MOG)-induced murine model of experimental autoimmune encephalomyelitis (EAE), a central nervous system (CNS) autoimmune demyelinating disease that mimics many of the clinical and pathologic features of multiple sclerosis. Gilgun-Sherki Y., et al., Neurosciences Research 47:201-207, 2003.
Study Design and Results. This study used sixty female young adult (10-11 weeks at study initiation) C57BL/6J mice sourced from Envigo RMS (Israel), Ltd. The animals were divided into five experimental groups:
Each group received a dose volume of 5 ml/kg, and the regimen was performed daily from day 0 to 22 of the study, QD. On study day 21, half of the animals in each group was treated and tested for electrophysiology and electromyography (EMG) two hours post dosing. On study day 22, the same was performed with the remaining half of the animals in each group.
FIG. 1 provides a representation of the study. Following baseline measurements, the MOG murine model begins with a sensitization period induced by the single subcutaneous (SC) injection of MOG emulsified in Complete Freund's adjuvant (CFA) on Study Day 0, followed by intraperitoneal (IP) supplemental immunostimulation with pertussis toxin (PT) carried out once at the day of EAE induction (study day 0) and once again 48 hours later (on study day 2). […] Mechanical allodynia was tested using the Von Frey test at Baseline and on Day 9 at various timepoints. For evaluation of spasticity, transcranial motor-evoked potentials (tcMEPs) were tested at Baseline and on Days 9 and 21-22 (half of the animals on each day). All animals were administered treatment once daily, starting on Day 0 until Day 22. Animals in Group 1 received oral (PO) treatment with the vehicle. Animals in Group 2 were treated with Fingolimod (FTY720; positive control) at a dose level of 3 mg/kg. PO. Animals in Groups 3 and 4 were treated with the test item Compound 1 at a dose level of 10 mg/kg or 3 mg/kg, PO, respectively. Animals in Group 5 were treated with Tizanidine at a dose level of 1 mg/kg, IP.
Electrophysiology: The animals were subjected to electrophysiology testing at Baseline and Days 10 and 21 of the study. The EMG, latency, latency to main event, duration, peak-to-peak (P2P) amplitude, and number of subpeaks were recorded.

In experiment [2] the test system is rat model of spasticity induced by complete spinal cord transection. Kind of experiment: Muscle spasms evoked by tibial nerve stimulation in chronic SCI rats. As to conditions: for duration of action (muscle spasms): recordings up to 6 hours. The class given is in vivo. How it is done: The efficacy of Compound 1 was measured in a rat model of spasticity induced by complete spinal cord transection. To induce muscle spasticity, a model of complete spinal cord transection cord at the eighth thoracic (T8) vertebral level was used. Five weeks after the Spinal Cord Injury (SCI), the rats were orally (P.O.) treated with Compound 1 (3, 10, or 30 mg/kg), Baclofen (4.5 mg/kg). Tizanidine (3 mg/kg) or vehicles alone (0.9% NaCl, Compound 1 vehicle), and the degree of spasticity response was measured using the rate-dependent depression (RDD) of the Hoffmann's reflex (H-reflex) and spasms induction.
Materials and Methods. […] One hundred and fifty-one SCI rats were maintained up to the end of the 5th post-injury week. One hundred and forty rats were submitted to P.O. administration of the test compounds and EMG analysis.
The rat was firmly restrained to immobilize the head. In an upright position, the gavage needle was passed along the side of the mouth. Following the roof of the mouth, the needle was advanced into the esophagus and toward the stomach. After the needle is passed to the correct length, the compound was slowly injected. The rats were randomly assigned to one of the test groups:
Electroneuromyographical recordings were performed in the right hind limbs before and 1, 2, 3, 4, 5 and 6 hours after P.O. administration.
Electromyographical (EMG) signals were amplified (100×) and bandpass filtered (300 Hz to 5 kHz; A-M Systems Amplifier. Everett, Washington; model 1700) before sampling at 13.5 kHz (Digidata 1440A, Molecular Devices). The tibial nerve was stimulated by using square pulses with increasing stimulus intensities (0.2 mA increments starting from 0.2 mA, 0.2 Hz, 0.2 ms; A-M systems stimulator, Model 2100) to obtain recruitment curves.
Muscles spasms: In awake chronic SCI rats, muscle spasms were evoked with stimulation of the tibial nerve while performing electromyographic (EMG) recordings from the flexor digitorum brevis (FDB) muscle. Spastic spinal rats were handled nine days before the experiment and progressively habituated to be individually constrained in a plexiglass tube and to immobilization of their paralyzed hindlimbs with tape. • 1. Hmax and Mmax determination: the tibial nerve was stimulated for 0.2 ms at 0.2 Hz with increasing current intensities (1-6 mA in 0.2 mA increments) until Mmax was stabilized. • 2. A supramaximal single-pulse stimulation to elicit muscle spasms was fixed throughout the experiment (2 or 3 times the threshold intensity for M-wave) and evoked 5 times, with 60 s interstimulus intervals. EMG were rectified and averaged over 2000 ms interval post-stimulus to quantify spasms (Clamplit 8.0, Axon Instruments).
Data analysis: H-reflex RDDs and areas under the curves (AUC) were determined as a measurement of spasticity and analyzed at each time point and for each frequency with Mann-Whitney test or with Kruskal Wallis one-way analysis of variance (ANOVA) test, followed by Dunn's multiple comparisons test. P<0.05 was considered significant. Significant differences were marked with asterisks (*) according to their respective P-values: values were expressed as the mean value±standard error of the mean (SEM) in all graphs. All statistical analyses were performed using GraphPad Prism 7 (San Diego, California, USA).
Modulation of Muscle Spasms. When the tibial nerve was stimulated in acutely (1 week after injury) injured rats, little reflexes were evoked in the FDB muscle (FIG. 8A), regardless of the stimulation intensity. In contrast, stimulation of the tibial nerve in chronic (5 weeks after injury) SCI rats produced more (P<0.0001; Mann-Whitney test; FIG. 8C) long-lasting muscle contractions (FIG. 8B). This effect is a reliable correlate of the development of spasticity. In spastic rats, spasms were induced through the FDB muscle after electrical stimulation of the tibial nerve. […]

The mark [3] stands for this setting: both dose levels (10 and 3 mg/kg PO QD).

Structures are written as SMILES.

In the case of `CC(C)C[C@](C)(N)COc1ccc(-c2ccnc(C(F)F)c2)nc1C(F)F` [Compound 1, (S)-1-((2′,6-bis(difluoromethyl)-[2,4′-bipyridin]-5-yl)oxy)-2,4-dimethylpentan-2-amine], the latency was found to be 5.31 ± 0.21 ms in experiment [1] (3 mg/kg PO QD, Day 10) and 5.54 ± 0.22 ms in experiment [1] (10 mg/kg PO QD, Day 10). Further, the “latency until reaching the main event” value in experiment [1] (3 mg/kg PO QD, Day 10, vehicle 10.05±2.59 ms) is 5.32 ± 0.22 ms. Also, the “peak-to-peak (P2P) amplitude” value amounted to 11321.67±1321.68 μV in experiment [1] (3 mg/kg PO QD, Day 10) and 11613.75±1154.41 μV in experiment [1] (10 mg/kg PO QD, Day 10). For the same compound, the results for the “rate of fibrillation (EMG)” value in experiment [1] (3 mg/kg PO QD) and in experiment [1] (10 mg/kg PO QD) were 0.38±0.38 Hz and 1.22±0.57 Hz, respectively. For the same compound, in experiment [1] (setting [3]), the “duration compared to vehicle treated animals” value was “reduced”. Moreover, in experiment [1] (setting [3]), the “number of sub potentials compared to vehicle treated animals” value is on record as “reduced”. The “onset of action (muscle spasms)” value in experiment [2] (single P.O. 3 mg/kg), in experiment [2] (single P.O. 10 mg/kg) and in experiment [2] (single P.O. 30 mg/kg) was 1 h in each case. Also, the “duration of action (muscle spasms)” value was found to be 5 h in experiment [2] (single P.O. 3 mg/kg), 3 h in experiment [2] (single P.O. 10 mg/kg) and 5 h in experiment [2] (single P.O. 30 mg/kg). Also, the “muscle spasms (AUC)” value in experiment [2] (single P.O., all tested dosages (3, 10, 30 mg/kg), n=10) is “significantly reduced”.
